Results from patent US20070031511A1, “Method of treatment” (priority 2003, published 2007).
Entries after “also recorded” stand apart in the source; their conditions may differ.

Key:
IMGE-5 cells [1] = assay: Wound healing / cell migration assay; assay type: cell-based, mice
Method: The IMGE-5 cell line was established from the gastric mucosa of mice transgenic for a temperature-sensitive mutant of the SV40 large T antigen (Hollande et al, 2001). IMGE-5 cells were generally grown at 33° C. in DMEM containing 1 unit/ml γ-interferon, 10% FBS, 100 U/ml penicillin, and 100 μg/ml streptomycin (permissive conditions). For all experiments, cells were transferred to 39° C. in the same medium without […] (non-permissive conditions), where they display differentiated characteristics such as expression of functional adherens and tight junctions. All experiments have been performed on cells between passages 20 and 35.
In order to assess the effects of different stimuli on cell migration, wound healing experiments were performed as detailed elsewhere (Hollande et al, 1997). In brief, IMGE-5 cells were grown in 12-well plates in DMEM at 33° C. until they reached 80% confluence, then shifted to 39° C. and starved of serum for 24 h. The confluent monolayer was wounded using a 20 μl-pipette tip, and cells were then washed 3 times with phosphate-buffered saline (PBS: 2.7 mM KCl, 1.5 MM KH2PO4, 142 mM NaCl, and 10 mM Na2HPO4, pH 6.95) and treated with or without different compounds in DMEM with antibiotics. Morphology and migration of cells were observed and photographed immediately, and after treatment for 17 and 24 h. Wound width was measured at six different positions on the 24 h photographs, and averages calculated.

IMGE-5 cells [2] = assay: IMGE-5 cell proliferation, [3H]-thymidine incorporation; assay type: cell-based, mice
Method: In some cases cell proliferation was also measured by [^3H]-thymidine incorporation as described previously (Oiry et al., 2000). Briefly, IMGE-5 cells (10^5/well) were seeded in 24-well plates in medium containing 10% FBS and 1 unit/ml γ-interferon. On the next day cells were serum starved and shifted to 39° C. for 24 hr. Cells were then incubated with or without various compounds at 39° C. for 17 h in medium supplemented with 0.2% bovine serum albumin only. Cells were incubated with 0.5 μCi of [^3H] thymidine in the same medium at 39° C. for 4 h, washed twice with PBS (2.7 mM KCl, 142 mM NaCl, 1.5 mM KH2PO4, 10 mM Na2HPO4, pH 6.95) containing 0.2% bovine serum albumin and incubated at 4° C. for 30 min with 5% trichloroacetic acid. Finally cells were washed with 95% ethanol to remove unincorporated [^3H] thymidine, and lysed with 1 M NaOH. Lysates were transferred to counting vials and neutralized with 1M HCl. The radioactivity of each lysate was counted in a β-counter after the addition of 10 ml of Pico-fluor 40 solution (Packard, Meriden, Conn.).
In some experiments IMGE-5 cells were seeded in a 96-well plate at a density of 3-5×10^3 cells/well in.DMEM containing 10% FBS, and cultured at 33° C.. On the following day, the cells were serum-starved at 33° C. for 24 h. […] The cells were cultured at 39° C. for 24 h, and then harvested using a NUNC cell harvester. The amount of ^3H-thymidine incorporated through DNA synthesis was detected with a β-counter (Packard, Meriden, Conn.). […]

[3] = 1H NMR titration of Ggly fragments with ferric citrate; assay type: binding; details: pH 5.3, 278 K, read-out: Apparent Kd for ferric ions from shift of the Glu10 amide resonance
Method: The peptides LE5AYG, LE5A, E5AY and E5A (approximately 2 mM) were dissolved in H2O with 5 or 10% ^2H2O. […] Sequence-specific ^1H NMR resonance assignments were made from two-dimensional nuclear Overhauser enhancement spectroscopy (NOESY) and total correlation spectroscopy (TOCSY).
The apparent dissociation constants, Kd, for the complexes between ferric ions and the nonapeptide LE5AYG or the octapeptide LE5AY were obtained from the change in chemical shift of the Glu10 amide proton on addition of ferric citrate using the program Sigmaplot (Jandel Scientific, San Rafael, Calif.), by linear regression of the data to the equation 1/δ=Kd/Δ·1/[Fe^3+]+1/Δ where δ is the change in chemical shift, Δ is the maximum change in chemical shift, and [Fe^3+] is the concentration of added ferric ions. Measurement of Inositol Phosphate Production
In order to define the ligands involved in ferric ion binding, we next investigated the effect of ferric ions on the NMR spectra of the peptides. Ferric ion titration experiments were carried out by addition of 20, 50, or 200 mM ferric citrate solution to the peptides. The pH was maintained at 5.3 by addition of small amounts of NaO^2H or ^2HCl. Concentration, pH, temperature and use of ferrric citrate were in keeping with the conditions that were employed in earlier examples in order to prevent precipitation of peptide or ferric hydroxide. […]

IMGE-5 cells [4] = assay: IMGE-5 cell proliferation, MTT assay; assay type: cell-based, mice; details: DFO 1 μM
rectal mucosa = assay: Proliferation in the rectal mucosa of rectally defunctioned rats (metaphase-arrested cells); assay type: in vivo; details: DFO 400 mg/kg intraperitoneally thrice weekly, 4 weeks; Ggly 2.5 nmol/kg/hr
Method: DFO (400 mg/kg) was administered intraperitoneally thrice weekly, and bismuth ions were administered as colloidal bismuth subcitrate (135 mg/kg/12 hours) by oral gavage 5 days per week. After 4 weeks, the rats were injected with vincristine to arrest cycling cells in metaphase, and sacrificed 3 hrs later. Crypt heights in the rectal mucosa, and the number of metaphase arrested cells per crypt, were then determined microscopically.

hepatoma cell lines = details: Kicic et al, 2001; cited from earlier work
human hepatomas = details: Hann et al, 1992; cited from earlier work
CCK-2 receptor = molecular target: T1, CCK-2 receptor (Homo sapiens, UniProt P32239); assay: Gamide-stimulated inositol phosphate production in COS-7 cells transfected with the CCK-2 receptor; assay type: cell-based; design: COS-7 cells transiently transfected with CCK-2 receptor cDNA; expressed in transfected cells; host or cells: COS-7; details: 1 μM DFO, 10 nM Gamide
T1 sequence (P32239 1-447): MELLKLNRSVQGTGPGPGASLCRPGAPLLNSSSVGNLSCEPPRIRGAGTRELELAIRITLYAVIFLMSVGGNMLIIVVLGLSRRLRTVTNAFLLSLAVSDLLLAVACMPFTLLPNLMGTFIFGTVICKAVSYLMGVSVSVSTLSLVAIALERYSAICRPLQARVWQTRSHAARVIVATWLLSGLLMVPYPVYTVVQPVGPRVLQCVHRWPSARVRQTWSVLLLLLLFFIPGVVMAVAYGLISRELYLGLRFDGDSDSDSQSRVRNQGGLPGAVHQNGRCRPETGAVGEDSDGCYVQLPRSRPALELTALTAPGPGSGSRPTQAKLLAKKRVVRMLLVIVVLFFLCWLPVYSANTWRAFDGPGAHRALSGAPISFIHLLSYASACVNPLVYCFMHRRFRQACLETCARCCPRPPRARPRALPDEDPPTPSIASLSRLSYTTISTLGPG
Method: Intracellular inositol phosphate production was determined as described previously (Qian et al, 1993). IMGE-5 cells (10^5 cells/ml) were plated in 24-multiwell culture plates in DMEM supplemented with 10% FBS, 200 IU/ml penicillin and 200 μg/ml streptomycin. 24 h later, cells were incubated with DMEM supplemented with antibiotics and Myo-[2-^3H]inositol (2.5 μCi/well) and shifted to 39° C. for 16 h. Cells were then washed with pre-warmed DMEM and incubated (20-30 minutes, 37° C.) with DMEM supplemented with 20 mM LiCl. Loaded cells were then washed in 1 ml of IP buffer (135 mM NaCl, 20 mM N-(2-hydroxyethyl)piperazine-N′-(2-ethanesulfonic acid), 2 mM CaCl2, 1.2 mM MgSO4, 1 mM ethylene glycol-bis(2-aminoethylether)-N,N,N′,N′-tetraacetic acid, 10 mM LiCl, and 0.5% bovine serum albumin, pH 7.45) and incubated with or without agonist in a final volume of 0.5 ml of IP buffer. After 1-h incubation at 37° C., the reaction was stopped by removing the incubation medium and adding 1 ml of a mixture of ethanol/HCl (2000:1; v/v). One ml of each aliquot was applied to a column containing 1.6 ml of a 1:2 (v/v) Dowex AG-1-X8 anion exchange resin in distilled water. The columns were washed with 4 ml of distilled water, followed by 4 ml of 40 mM HCOONH4, and inositol phosphates were eluted with 4 ml of 1 M HCOONH4. The radioactivity of each eluate was counted after addition of Complete phase combining system solution (Amersham, UK). For the positive control, IMGE-5 cells were incubated with a combination of 30 mM NaF and 10 μM AlCl3 under the same experimental conditions.
Gamide-stimulated inositol phosphate production was measured in COS-7 cells transfected with the CCK-2 receptor. […] Bismuth ions alone had no effect on inositol phosphate production in CCK-2 receptor-transfected COS-7 cells and HT29 cells, even at the highest concentration tested.
We then investigated the role of the individual glutamates in biological activity. The effects of the mutants GamideE7A and GamideE8,9A on inositol phosphate production in COS-7 cells transiently transfected with the CCK-2 receptor were compared.

Row | Compound | Stimulation of cell migration compared with Ggly (IMGE-5 cells [1]; 100 nM peptide, 24 h) | Effect of DFO on peptide-stimulated migration (IMGE-5 cells [1]; 100 nM peptide, DFO in the medium) | S (%), maximum % stimulation (IMGE-5 cells [2]; IMGE cells, thymidine uptake, best fit at saturating concentration) | Stimulation of proliferation of IMGE cells (IMGE-5 cells [2]; incorporation of [3H]-thymidine) | Effect of DFO on proliferation induced by the peptide (IMGE-5 cells [2]; peptide 100 nM, plus or minus 1 μM DFO, [3H]-thymidine incorporation) | Kd [3] | Effect on Ggly-stimulated IMGE-5 cell proliferation (IMGE-5 cells [4]; MTT and thymidine assays) | Reduction of Gamide-stimulated IMGE-5 cell proliferation (IMGE-5 cells [4]; MTT, 72 h) | Effect on Ggly-stimulated IMGE-5 cell migration (IMGE-5 cells [1]; DFO 1 μM) | Effect on stimulation of proliferation of the rectal mucosa by Ggly (rectal mucosa) | Inhibition of proliferation of hepatoma cell lines in vitro (hepatoma cell lines) | Inhibition of human hepatomas (human hepatomas) | Effect on Gamide-stimulated inositol phosphate production (CCK-2 receptor)
1 | LEEEEEAYG [LE5AYG] | more effective than Ggly | reversed by inclusion of DFO | 45.8% | significantly stimulated proliferation | completely blocked; also recorded: significantly blocked by DFO | 7 mM | – | – | – | – | – | – | –
2 | CC(=O)N(O)CCCCCNC(=O)CCC(=O)N(O)CCCCCNC(=O)CCC(=O)N(O)CCCCCN [DFO, desferrioxamine] | – | – | – | – | – | – | completely blocked | 60% | completely blocked | significantly reduced | effective inhibitors | effective inhibitor | had no effect
